Results reported in US20140315889A1, “HYDROXAMATE DERIVATIVES FOR HDAC INHIBITOR, AND THE PHARMACEUTICAL COMPOSITION COMPRISING THEREOF” (CHONG KUN DANG PHARMACEUTICAL CORP., priority 2011, published 2014).
Like-named read-outs stand apart in the source and are kept apart here.

Tests used:
[1] = target: T1, HDAC7 (Homo sapiens, UniProt Q8WUI4); experiment: HDAC enzyme activity test, HDAC7; assay type: biochemical
T1 sequence (Q8WUI4 1-952): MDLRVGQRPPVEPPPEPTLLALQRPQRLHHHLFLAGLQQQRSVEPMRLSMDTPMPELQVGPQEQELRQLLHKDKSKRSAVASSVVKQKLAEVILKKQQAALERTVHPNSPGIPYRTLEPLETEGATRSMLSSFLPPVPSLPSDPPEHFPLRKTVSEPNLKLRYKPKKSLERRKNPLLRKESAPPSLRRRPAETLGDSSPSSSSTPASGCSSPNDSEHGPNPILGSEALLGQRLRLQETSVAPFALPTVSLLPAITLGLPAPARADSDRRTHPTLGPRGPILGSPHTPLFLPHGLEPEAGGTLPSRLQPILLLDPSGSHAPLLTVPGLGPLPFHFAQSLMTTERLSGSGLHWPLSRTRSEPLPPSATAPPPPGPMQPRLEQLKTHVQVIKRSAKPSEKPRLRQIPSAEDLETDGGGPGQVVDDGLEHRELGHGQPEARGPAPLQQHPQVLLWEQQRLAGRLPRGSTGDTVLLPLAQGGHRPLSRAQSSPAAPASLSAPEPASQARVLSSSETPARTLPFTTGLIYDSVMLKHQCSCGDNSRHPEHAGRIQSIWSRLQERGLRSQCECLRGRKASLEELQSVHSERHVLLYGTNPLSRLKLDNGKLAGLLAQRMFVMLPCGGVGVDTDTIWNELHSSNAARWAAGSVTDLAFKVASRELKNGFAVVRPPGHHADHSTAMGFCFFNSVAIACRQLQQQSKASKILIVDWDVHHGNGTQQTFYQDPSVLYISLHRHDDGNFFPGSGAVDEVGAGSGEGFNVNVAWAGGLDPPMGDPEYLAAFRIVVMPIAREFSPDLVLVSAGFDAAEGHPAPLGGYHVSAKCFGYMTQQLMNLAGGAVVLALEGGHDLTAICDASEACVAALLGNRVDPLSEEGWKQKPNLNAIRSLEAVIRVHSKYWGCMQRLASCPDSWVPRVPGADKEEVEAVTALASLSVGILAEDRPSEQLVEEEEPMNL
Procedure: (§1) Then, 0.3 μg of enzyme and 10 μM of substrate per well were added, reacted at 30° C. for 60 minutes. Thereto, Fluor de Lys® Developer II (BML-KI176) was added and reacted for 30 minutes. […] From the data, the respective IC50 were calculated by GraphPad Prism 4.0 program.

[2] = target: HDAC2 (Homo sapiens, UniProt Q92769); experiment: HDAC enzyme activity test, HDAC2; assay type: biochemical; details: Table 11, eleven HDAC isozymes; read-out: Inhibition ability (IC50) against HDAC2
HDAC2, sequence (Q92769 whole entry, species assumed): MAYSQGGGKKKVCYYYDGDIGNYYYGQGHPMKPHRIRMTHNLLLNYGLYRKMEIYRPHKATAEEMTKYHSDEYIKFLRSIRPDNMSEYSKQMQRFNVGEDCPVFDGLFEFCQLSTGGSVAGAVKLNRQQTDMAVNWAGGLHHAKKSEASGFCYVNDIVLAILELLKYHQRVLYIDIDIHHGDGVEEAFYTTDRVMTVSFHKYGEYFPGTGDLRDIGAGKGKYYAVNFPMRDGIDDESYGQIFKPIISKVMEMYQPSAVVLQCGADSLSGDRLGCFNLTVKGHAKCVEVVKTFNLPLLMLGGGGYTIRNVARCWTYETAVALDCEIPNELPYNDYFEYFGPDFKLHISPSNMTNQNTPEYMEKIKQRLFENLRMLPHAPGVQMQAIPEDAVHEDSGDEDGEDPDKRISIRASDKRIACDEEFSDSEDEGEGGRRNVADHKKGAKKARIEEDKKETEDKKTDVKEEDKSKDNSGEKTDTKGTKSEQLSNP
Procedure: as §1

[3] = target: T2, Human recombinant HDAC1 (Homo sapiens, UniProt Q13547); experiment: HDAC enzyme activity test, HDAC1; assay type: biochemical
T2 construct: purchased Enzo Life Science Co. (named for the kit; assigned to the enzyme from the BML- catalogue prefix) BML-SE456
T2 sequence (Q13547 whole entry): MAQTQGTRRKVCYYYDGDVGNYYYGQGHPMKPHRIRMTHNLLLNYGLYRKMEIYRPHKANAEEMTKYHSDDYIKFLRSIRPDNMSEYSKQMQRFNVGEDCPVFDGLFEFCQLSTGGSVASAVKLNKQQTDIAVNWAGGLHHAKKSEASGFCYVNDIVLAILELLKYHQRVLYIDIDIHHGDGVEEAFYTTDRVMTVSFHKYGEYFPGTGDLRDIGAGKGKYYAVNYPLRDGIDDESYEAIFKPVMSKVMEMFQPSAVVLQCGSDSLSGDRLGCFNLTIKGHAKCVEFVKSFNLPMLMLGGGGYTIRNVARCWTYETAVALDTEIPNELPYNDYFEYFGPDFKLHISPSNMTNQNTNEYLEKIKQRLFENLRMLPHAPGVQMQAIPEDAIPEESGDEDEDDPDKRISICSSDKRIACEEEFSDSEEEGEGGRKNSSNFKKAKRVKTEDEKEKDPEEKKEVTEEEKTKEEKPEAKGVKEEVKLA
Procedure: as §1

[4] = target: T3, HDAC11 (Homo sapiens, UniProt Q96DB2); experiment: HDAC enzyme activity test, HDAC11; assay type: biochemical; details: Table 11, eleven HDAC isozymes; read-out: Inhibition ability (IC50) against HDAC11
T3 sequence (Q96DB2 1-347): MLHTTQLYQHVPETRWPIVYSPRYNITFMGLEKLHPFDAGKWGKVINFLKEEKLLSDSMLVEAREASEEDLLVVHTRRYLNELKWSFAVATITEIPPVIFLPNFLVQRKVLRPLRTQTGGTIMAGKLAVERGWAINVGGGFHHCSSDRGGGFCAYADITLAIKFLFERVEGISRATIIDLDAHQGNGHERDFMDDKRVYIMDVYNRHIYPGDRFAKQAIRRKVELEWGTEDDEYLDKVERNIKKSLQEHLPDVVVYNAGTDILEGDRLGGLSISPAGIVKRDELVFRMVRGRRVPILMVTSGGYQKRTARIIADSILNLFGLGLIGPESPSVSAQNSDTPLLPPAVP
Procedure: as §1

[5] = target: HDAC9 (Homo sapiens, UniProt Q9UKV0); experiment: HDAC enzyme activity test, HDAC9; assay type: biochemical; details: Table 11, eleven HDAC isozymes; read-out: Inhibition ability (IC50) against HDAC9
HDAC9, sequence (Q9UKV0 whole entry, species assumed): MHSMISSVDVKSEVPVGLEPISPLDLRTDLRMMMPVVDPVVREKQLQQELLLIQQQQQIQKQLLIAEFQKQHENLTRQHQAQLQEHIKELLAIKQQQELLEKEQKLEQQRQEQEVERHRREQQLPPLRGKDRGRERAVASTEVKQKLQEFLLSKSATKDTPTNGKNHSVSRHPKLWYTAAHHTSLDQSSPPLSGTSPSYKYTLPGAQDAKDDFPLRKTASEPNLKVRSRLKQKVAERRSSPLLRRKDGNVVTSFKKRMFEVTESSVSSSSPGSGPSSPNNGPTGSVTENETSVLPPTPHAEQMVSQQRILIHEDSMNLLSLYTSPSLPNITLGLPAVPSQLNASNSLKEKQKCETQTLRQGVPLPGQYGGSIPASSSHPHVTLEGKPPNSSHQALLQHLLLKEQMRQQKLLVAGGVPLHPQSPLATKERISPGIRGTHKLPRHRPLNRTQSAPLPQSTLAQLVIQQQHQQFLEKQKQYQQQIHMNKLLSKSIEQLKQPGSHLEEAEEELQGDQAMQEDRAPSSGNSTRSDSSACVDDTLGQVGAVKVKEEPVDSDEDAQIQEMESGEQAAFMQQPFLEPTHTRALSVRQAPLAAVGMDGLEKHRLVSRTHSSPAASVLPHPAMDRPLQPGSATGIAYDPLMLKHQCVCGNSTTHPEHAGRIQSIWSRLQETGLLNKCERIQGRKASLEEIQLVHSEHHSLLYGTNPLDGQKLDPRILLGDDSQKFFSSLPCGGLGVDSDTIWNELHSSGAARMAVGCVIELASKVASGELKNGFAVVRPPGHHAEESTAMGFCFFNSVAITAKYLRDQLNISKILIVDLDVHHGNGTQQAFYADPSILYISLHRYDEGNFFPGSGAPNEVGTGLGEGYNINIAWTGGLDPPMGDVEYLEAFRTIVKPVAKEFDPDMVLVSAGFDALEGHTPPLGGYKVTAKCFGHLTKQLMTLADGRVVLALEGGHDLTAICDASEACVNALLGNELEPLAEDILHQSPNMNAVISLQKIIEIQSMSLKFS
Procedure: as §1

[6] = target: HDAC3 (Homo sapiens, UniProt O15379); experiment: HDAC enzyme activity test, HDAC3; assay type: biochemical; details: Table 11, eleven HDAC isozymes; read-out: Inhibition ability (IC50) against HDAC3
HDAC3, sequence (O15379 whole entry, species assumed): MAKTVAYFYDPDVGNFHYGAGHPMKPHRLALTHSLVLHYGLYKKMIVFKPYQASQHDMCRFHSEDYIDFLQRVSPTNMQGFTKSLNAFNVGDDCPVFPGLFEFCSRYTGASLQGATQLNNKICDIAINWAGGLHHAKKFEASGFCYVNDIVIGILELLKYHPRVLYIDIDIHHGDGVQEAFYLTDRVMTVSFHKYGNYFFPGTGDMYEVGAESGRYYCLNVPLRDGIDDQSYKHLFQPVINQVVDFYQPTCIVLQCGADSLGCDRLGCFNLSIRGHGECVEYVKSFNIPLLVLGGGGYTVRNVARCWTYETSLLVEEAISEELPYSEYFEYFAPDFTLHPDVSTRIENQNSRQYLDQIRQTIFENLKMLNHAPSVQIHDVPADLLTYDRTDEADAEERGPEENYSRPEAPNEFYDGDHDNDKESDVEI
HDAC3, sequence (Q9Y618 395-489 partner limits assumed, species assumed): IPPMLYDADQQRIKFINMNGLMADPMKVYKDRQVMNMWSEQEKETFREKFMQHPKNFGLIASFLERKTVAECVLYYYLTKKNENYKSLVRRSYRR
Procedure: as §1

[7] = tested on: collagen-induced arthritis model; experiment: Effectiveness of compound 87 in a collagen-induced arthritis model; assay type: in vivo, DBA1J mice; details: for clinical score decreased, compared with the positive control group: vs ITF2357 50 mg/kg group
From the text: 7-week aged male DBA1J mice were used in the experiment. The animal facility was kept at constant temperature and constant humidity with a 12-hr dark/12-hr light cycle, and the animals were allowed to access food and water ad libitum. The animals were acclimated to the cage for 7 days.
Each arthritis-onset animals were selected and then promptly used in the experiments. The experimental animal groups consist of: • A. two vehicle-control groups administered with only vehicle via s.c. (subcutaneous injection) and p.o. (per oral), • B. a positive control group administered with ITF2357 of 50 mg/kg, and • C. two compound test groups administered with compound 87 in each doses of 10 and 50 mg/kg.
A solution of ITF2357 for administration was prepared using 0.5% methylcellulose as a vehicle. It was administered orally to the animals in a volume of 10 ml/kg once a day for 7 days. A solution of compound 87 for administration was prepared using DMSO as a vehicle just before administration. It was administered in a volume of 2 ml/kg via s.c. once a day for 7 days. Two vehicle-control groups were administered with only vehicle once a day for 7 days via s.c. and p.o. separately.
Bovine type 2 collagen (Chondrex) and complete Freund's adjuvant (Chondrex) are mixed in 1:1 to become an emulsion. Each 0.1 ml of the obtained emulsion was injected to the tail of each mouse intradermally. After 21 days, Bovine type 2 collagen (Chondrex) and incomplete Freund's adjuvant (Chondrex) are mixed in 1:1 to become an emulsion. Each 0.1 ml of the obtained emulsion was injected to the hips of each mouse intradermally for boosting. After boosting, feet of the mice were observed once a day. When clinical score was occurred, the drug administration and its evaluation were started. The criterion of clinical score was according to Experimental Example 3.
All the results were expressed as mean±SEM, and each test group and the control groups (vehicle-control group or positive control group) were compared using one-way ANOVA test (Dunnett's test, p<0.001) with GrapicPad Prism 5.0 program.

[8] = Table 11, eleven HDAC isozymes, read-out: Inhibition ability (IC50) against HDAC1
[9] = Table 12, read-out: Inhibition ability (IC50) HDAC1

| SMILES | IC50 ([1]; Table 11, eleven HDAC isozymes, read-out: Inhibition ability (IC50) against HDAC7) [µM] | IC50 [2] [nM] | IC50 [3, 8] [µM] | IC50 [4] [µM] | IC50 [5] [nM] | IC50 [6] [nM] | clinical score decreased, compared with the positive control group ([7]; 10 mg/kg s.c. once a day for 7 days) [%] | clinical score decreased, compared with the positive control group ([7]; 50 mpk s.c. once a day for 7 days) [%] | body-weight loss ([7]; collagen-induced arthritis mice, 10 and 50 mg/kg s.c.) | IC50 [1] [µM] | IC50 [3, 9] [µM] | IC50 ([3]; data of Table 11, read-out: IC50 against HDAC1) [µM] |
| --- | --- | --- | --- | --- | --- | --- | --- | --- | --- | --- | --- | --- |
| CN1CCN(C(=O)N(CCCCCCC(=O)NO)c2ccc(-c3ccc4cnn(C)c4c3)cc2)CC1 [CKD-581, reference compound] | 0.0106 | 1.58 | 0.000673 | 0.00152 | 0.42 | 0.693 |  |  |  |  |  |  |
| O=C(NO)c1ccc(Cn2c3c(c4ccccc42)C(=O)C(CN2CCOCC2)CC3)cc1 (stereo not drawn) [Compound 87, N-hydroxy-4-((3-(morpholinomethyl)-4-oxo-1,2,3,4-tetrahydrocarbazol-9-yl)methyl)benzamide] |  |  |  | 37.5 | 1750 |  | 44 | 68 | no observation of body-weight loss | 3.28 | 3.07 | 11.2 |
| CN1CCN(CC2CCc3c(c4cc(F)ccc4n3Cc3ccc(C(=O)NO)cc3)C2=O)CC1 (stereo not drawn) [Compound 142, 4-((6-fluoro-3-((4-methylpiperazin-1-yl)methyl)-4-oxo-1,2,3,4-tetrahydrocarbazol-9-yl)methyl)-N-hydroxybenzamide] |  |  | 12.2 | 11.1 | 1880 |  |  |  |  | 4.53 | 2.65 |  |
| CC1(C)CC(=O)c2c(C(F)(F)F)nn(Cc3ccc(C(=O)NO)cc3)c2C1 [Compound 237, 4-((6,6-dimethyl-4-oxo-3-(trifluoromethyl)-4,5,6,7-tetrahydro-1H-indazol-1-yl)methyl)-N-hydroxybenzamide] |  |  |  | 33.9 | 16900 |  |  |  |  |  | 3.91 |  |
| O=C(NO)c1ccc(Cn2c3c(c4ccccc42)C(=O)N(CCN2CCOCC2)CC3)cc1 [Compound 249, N-hydroxy-4-((2-(2-morpholinoethyl)-1-oxo-1,2,3,4-tetrahydropyrido[4,3-b]indol-5-yl)methyl)benzamide] |  |  | 8.47 | 5.53 | 1030 |  |  |  |  | 3.42 | 3.46 |  |
